The test system of assay [1] is MCF-7 human breast cancer cells. The settings on record: MCF-7 cells, cited from earlier work; for reduction in MCF-7 cell numbers (inhibition): same conditions for fulvestrant and tamoxifen (tamoxifen: maximum).
The subject of the next assay is estrogen receptor (ER). Particulars: relative to oestradiol equivalent of 1.0; cited from earlier work.
A further assay relates to MCF-7 tumours. The settings on record: cited from earlier work.
Assay [2] has as its system breast cancer. Description: treatment of breast cancer patients who failed previous aromatase inhibitor treatment. The assay is classed as in vivo, human. Particulars: patients previously treated with an aromatase inhibitor (optionally also a SERM) and failed.
Assay [3] concerns breast cancer. Particulars: women whose breast cancer has progressed following tamoxifen therapy; cited from earlier work.

As for `C[C@]12CC[C@@H]3c4ccc(O)cc4C[C@@H](CCCCCCCCC[S+]([O-])CCCC(F)(F)C(F)(F)F)[C@H]3[C@@H]1CC[C@@H]2O` (stereo partly drawn) [fulvestrant, 7-alpha-[9-(4,4,5,5,5pentafluoropentylsulphiny)nonyl]-estra-1,3,5(10)-triene-3, 17βdiol], in assay [1] (read-out: IC50, inhibitory effect on the growth of MCF-7 human breast cancer cells), the IC50 – broadly, the point on the concentration scale where inhibition reaches its midpoint – is 0.29 nM. In addition, in assay [1], the “reduction in MCF-7 cell numbers (inhibition)” value is 80%. Besides, the “relative binding affinity for the estrogen receptor (ER)” value with estrogen receptor (ER) is given as 0.89. Moreover, the “duration of growth suppression of established MCF-7 tumours versus tamoxifen” value in the assay on MCF-7 tumours (established MCF-7 tumours, compared with tamoxifen treatment) was “twice as long”. Further, the “delay of tumourgenesis versus tamoxifen-treated mice” value in the assay on MCF-7 tumours (mice) was “delayed to a greater extent”. The “sensitivity of tamoxifen-resistant MCF-7 tumours to treatment” value in the assay with MCF-7 tumours (tumours grown out after long-term treatment with tamoxifen) is given as “remain sensitive to fulvestrant treatment”. Besides, the “sensitivity of breast cancer to further treatment” value in the assay on breast cancer [2] was “sensitive to further treatment by fulvestrant”. In addition, the “efficacy in phase II trial” value in the assay on breast cancer [3] is reported as “demonstrated efficacy”.

With oestradiol, the “relative binding affinity for the estrogen receptor (ER)” value in the assay on estrogen receptor (ER) was 1.0.

Consider `CC/C(=C(\c1ccccc1)c1ccc(OCCN(C)C)cc1)c1ccccc1` [tamoxifen], for which, in assay [1], the “reduction in MCF-7 cell numbers (inhibition)” value is at most 50%.

The values are drawn from patent US20110183949A1, “Use of Fulvestrant in the Treatment of Resistant Breast Cancer” (priority 2000, published 2011).
